From ChEMBL document CHEMBL1201862, “PubChem BioAssay data set” (2004)
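Grown in 96-well plates, cells were treated for 48 hours with each compound at five concentrations. Insufficient inhibition: endpoint recorded as highest concentration tested. GI50 = concentration required for 50% inhibition of growth.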 Calls of active or inactive are those of the source. Cut-off read from the data, not from the text of the source: active = GI50 up to about 1.1 µM and inactive = higher.

Key:
Experiment in all cases: growth of human tumour cells (NCI), 48 h
786-0 = test system: 786-0
A498 = test system: A498
A549 = test system: A549
ACHN = test system: ACHN
BT-549 = test system: BT-549
CAKI-1 = test system: CAKI-1
CCRF-CEM = test system: CCRF-CEM
COLO 205 = test system: COLO 205
DLD-1 = test system: DLD-1
DMS-114 = test system: DMS-114
DMS-273 = test system: DMS-273
DU-145 = test system: DU-145
EKVX = test system: EKVX
HCC 2998 = test system: HCC 2998
HCT-116 = test system: HCT-116
HCT-15 = test system: HCT-15
HL-60 = test system: HL-60
HOP-18 = test system: HOP-18
HOP-62 = test system: HOP-62
HT-29 = test system: HT-29
Hs-578T = test system: Hs-578T
IGROV-1 = test system: IGROV-1
K562 = test system: K562
KM-20L2 = test system: KM-20L2
KM12 = test system: KM12
LOX IMVI = test system: LOX IMVI
LXFL 529 = test system: LXFL 529
M14 = test system: M14
M19-MEL = test system: M19-MEL
MCF7 = test system: MCF7
MDA-MB-231 = test system: MDA-MB-231
MDA-MB-435 = test system: MDA-MB-435
MOLT-4 = test system: MOLT-4
Malme-3M = test system: Malme-3M
NCI-H226 = test system: NCI-H226
NCI-H23 = test system: NCI-H23
NCI-H460 = test system: NCI-H460
NCI-H522 = test system: NCI-H522
OVCAR-3 = test system: OVCAR-3
OVCAR-4 = test system: OVCAR-4
OVCAR-5 = test system: OVCAR-5
OVCAR-8 = test system: OVCAR-8
PC-3 = test system: PC-3
RPMI-8226 = test system: RPMI-8226
RXF 393 = test system: RXF 393
SF-268 = test system: SF-268
SF-295 = test system: SF-295
SF-539 = test system: SF-539
SK-MEL-28 = test system: SK-MEL-28
SK-MEL-5 = test system: SK-MEL-5
SK-OV-3 = test system: SK-OV-3
SN12C = test system: SN12C
SNB-19 = test system: SNB-19
SNB-75 = test system: SNB-75
SNB-78 = test system: SNB-78
SR = test system: SR
SW-620 = test system: SW-620
T47D = test system: T47D
TK-10 = test system: TK-10
U-251 = test system: U-251
UACC-257 = test system: UACC-257
UACC-62 = test system: UACC-62
UO-31 = test system: UO-31
XF498 = test system: XF498
HOP-92 = test system: HOP-92
RXF 631 = test system: RXF 631
SK-MEL-2 = test system: SK-MEL-2

Measured: GI50

Cc1ccc(NC(=O)NC(=O)c2ccc([N+](=O)[O-])cc2[N+](=O)[O-])cc1Oc1ncc(Cl)cn1
inactive: ACHN 1.33 µM | BT-549 17.9 µM | EKVX > 10 µM | HOP-18 10.3 µM | IGROV-1 1.13 µM | OVCAR-4 11.4 µM | SK-MEL-28 2.9 µM | T47D 12.7 µM | TK-10 14.4 µM
active: 786-0 0.466 µM | A498 0.5 µM | A549 0.542 µM | CAKI-1 0.479 µM | CCRF-CEM 0.292 µM | COLO 205 0.415 µM | DLD-1 0.421 µM | DMS-114 0.484 µM | DMS-273 0.318 µM | DU-145 0.731 µM | HCC 2998 0.271 µM | HCT-116 0.333 µM | HL-60 0.218 µM | HOP-62 0.277 µM | HT-29 0.3 µM | Hs-578T 0.05 µM | K562 0.275 µM | KM-20L2 0.234 µM | KM12 0.252 µM | LOX IMVI 0.637 µM | LXFL 529 0.36 µM | M14 0.38 µM | M19-MEL 0.741 µM | MCF7 0.164 µM | MDA-MB-231 0.614 µM | MDA-MB-435 0.063 µM | MOLT-4 0.362 µM | Malme-3M 0.0925 µM | NCI-H226 0.449 µM | NCI-H23 0.564 µM | NCI-H460 0.338 µM | NCI-H522 0.195 µM | OVCAR-3 0.355 µM | OVCAR-5 0.828 µM | OVCAR-8 0.468 µM | PC-3 0.117 µM | RPMI-8226 0.292 µM | RXF 393 0.175 µM | SF-268 0.713 µM | SF-295 0.406 µM | SF-539 0.287 µM | SK-MEL-5 0.195 µM | SK-OV-3 0.908 µM | SN12C 0.578 µM | SNB-19 0.48 µM | SNB-75 0.0752 µM | SNB-78 0.346 µM | SR 0.409 µM | SW-620 0.332 µM | U-251 0.208 µM | UACC-257 0.689 µM | UACC-62 0.229 µM | UO-31 0.735 µM | XF498 0.843 µM
0.44 µM: HCT-15

CC1=N/C(=C\c2ccc([N+](=O)[O-])cc2)C(=O)O1
> 100 µM: HCT-15
inactive: 786-0 > 100 µM | A498 > 100 µM | A549 > 100 µM | ACHN > 100 µM | COLO 205 > 100 µM | DLD-1 > 100 µM | DMS-114 > 100 µM | EKVX > 100 µM | HCC 2998 > 100 µM | HCT-116 > 100 µM | HL-60 > 100 µM | HOP-18 > 100 µM | HOP-62 > 100 µM | HOP-92 > 100 µM | HT-29 > 100 µM | IGROV-1 > 100 µM | K562 > 100 µM | KM-20L2 > 100 µM | KM12 > 100 µM | LXFL 529 > 100 µM | M14 > 100 µM | M19-MEL > 100 µM | MOLT-4 > 100 µM | Malme-3M > 100 µM | NCI-H23 > 100 µM | NCI-H460 > 100 µM | NCI-H522 > 100 µM | OVCAR-3 > 100 µM | OVCAR-4 > 100 µM | OVCAR-5 > 100 µM | OVCAR-8 > 100 µM | RPMI-8226 > 100 µM | RXF 393 > 100 µM | RXF 631 > 100 µM | SF-268 > 100 µM | SF-295 > 100 µM | SF-539 > 100 µM | SK-MEL-28 > 100 µM | SK-MEL-2 > 100 µM | SK-MEL-5 > 100 µM | SN12C > 100 µM | SNB-19 > 100 µM | SNB-78 > 100 µM | SW-620 > 100 µM | TK-10 > 100 µM | U-251 > 100 µM | UACC-257 > 100 µM | UACC-62 > 100 µM | UO-31 > 100 µM

CCCCC[C@@H]1CCCC2NC(CCCCCO[Si](c3ccccc3)(c3ccccc3)C(C)(C)C)CCC21 (stereo partly drawn)
11.7 µM: HCT-15
inactive: 786-0 18.1 µM | A498 17.3 µM | A549 17.5 µM | ACHN 13.5 µM | CAKI-1 15.4 µM | CCRF-CEM 7.82 µM | DLD-1 13.2 µM | DMS-114 13 µM | DMS-273 16.8 µM | EKVX 17.3 µM | HCC 2998 11.2 µM | HCT-116 11.5 µM | HL-60 8.71 µM | HOP-62 17.9 µM | HOP-92 10.1 µM | HT-29 4.28 µM | IGROV-1 16.9 µM | K562 5.25 µM | KM-20L2 10.6 µM | KM12 12.5 µM | LOX IMVI 12.2 µM | M14 14.1 µM | M19-MEL 17.3 µM | MOLT-4 12.6 µM | Malme-3M 19.1 µM | NCI-H226 18.7 µM | NCI-H23 15.7 µM | NCI-H460 16.2 µM | NCI-H522 15 µM | OVCAR-3 16.6 µM | OVCAR-4 8.67 µM | OVCAR-5 20.1 µM | OVCAR-8 17.1 µM | RPMI-8226 5.31 µM | RXF 393 11.3 µM | RXF 631 11.5 µM | SF-268 17.9 µM | SF-295 16.9 µM | SF-539 15.2 µM | SK-MEL-28 17.1 µM | SK-MEL-2 15.1 µM | SK-MEL-5 18.4 µM | SK-OV-3 21.8 µM | SN12C 14.7 µM | SNB-19 17.3 µM | SNB-75 16 µM | SNB-78 15.1 µM | SW-620 14.6 µM | TK-10 18.7 µM | U-251 14.1 µM | UACC-257 15.2 µM | UACC-62 19.5 µM | UO-31 13.4 µM
